Laboratory results: patent publication US8431524B2, “Peptide antagonist of interleukin-15 activity” (Centro de Ingenieria Genetica y Biotecnologia, priority 2008, dated 2013)
Like-named read-outs stand apart in the source and are kept apart here. Positions of bridges follow the written chain, without caps; N, C: chain ends. Residues, ends and D or L forms follow the SMILES beside them. Chains are numbered I, II in the order given. No end group written: not given here.

Assays:
[1] = system: CTLL-2 cell line; details: for IC50: 72 h; for activity relative to the original peptide of WO2006/029578 (fold): IL-15-dependent proliferation of CTLL-2; for inhibitory effect of the peptide (in words): from the IC50 values of Table 1
Method: To evaluate the neutralizing capacity of the peptides of the present invention, serial dilutions of these peptides were carried out in 96-well plates (Costar, USA) in a 25 μL volume of RPMI medium (Gibco) supplemented at 10% with calf fetal serum (Gibco). […]
Incubation was carried out for 72 h at 37° C. and 5% CO2. […] MTT is reduced to red formazan by the mitochondrial dehydrogenase of live cells.

[2] = system: KiT225 cell line; assay: IL-15-induced proliferation assay of the Kit225 cell line (MTT); format: cell-based, human; details: IL-15 300 pg/mL, serial dilutions of peptide; FIG. 3
Method: To evaluate the neutralizing capacity of the peptides of the present invention, serial dilutions of these peptides were carried out in 96-well plates (Costar, USA) in a 25 μL volume of RPMI medium (Gibco) supplemented at 10% with calf fetal serum (Gibco). Previously washed CTLL-2 or KiT225 cells were added at 5×10^3 cells/well and incubated for 30 min, and a saturating amount of 300 pg/mL IL-15 was added per well.
The antagonistic activity of the peptides was also evaluated, by varying the concentration of IL-15 at a fix concentration of 260 μM of each peptide. Incubation was carried out for 72 h at 37° C. and 5% CO2. Proliferation was assessed by using the MTT mitochondrial staining method (Cosman et al., Nature 1984, 312: 768-771). MTT is reduced to red formazan by the mitochondrial dehydrogenase of live cells. The IC50 was determined to each peptide at a IL-15 concentration of 300 pg/mL.

[3] = system: skin graft from a psoriasis patient; assay: Xenotransplant SCID mice model of human psoriasis; format: in vivo; details: 10 mg/kg, alternate days for two weeks; for grade of parakeratosis in the psoriatic lesion / keratinocytes' cycles / number of inflammatory cells / thickness of the epidermis: H & E; for severity of the disease: biopsy one week after last injection
Method: Two to three months-old SCID mice were transplanted with a skin graft of 1.5 cm×1.5 cm from a psoriasis patient. Three weeks after, mice were randomized and distributed in three groups: placebo, mice treated with peptide SEQ ID No. 12 at 10 mg/kg of body weight and cyclosporin A at 10 mg/kg in alternate days for two weeks. One week after the last injection, mice were sacrificed and a 4 mm biopsy was taken from each xenotransplant. Biopsies were fixed in formalin for paraffin embedding, and were stained with hematoxilin and eosin dyes (H & E).

[4] = target: IL-15Rα subunit (Homo sapiens, UniProt Q13261); details: IL-15 binding to IL-15Rα; cited from earlier work
Sequence of IL-15Rα subunit (Q13261 31-267): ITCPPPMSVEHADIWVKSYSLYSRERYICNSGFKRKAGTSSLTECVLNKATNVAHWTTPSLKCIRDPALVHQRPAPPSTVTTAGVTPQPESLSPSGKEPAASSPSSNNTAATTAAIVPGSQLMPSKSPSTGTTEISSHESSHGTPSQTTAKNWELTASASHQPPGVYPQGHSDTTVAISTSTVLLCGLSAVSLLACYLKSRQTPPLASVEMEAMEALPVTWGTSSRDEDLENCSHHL

[5] = target: human IL-15Rα (Homo sapiens, UniProt Q13261); assay: Competition ELISA, displacement of binding of IL-15 to IL-15Rα
Sequence of human IL-15Rα (Q13261 31-205 limits assumed): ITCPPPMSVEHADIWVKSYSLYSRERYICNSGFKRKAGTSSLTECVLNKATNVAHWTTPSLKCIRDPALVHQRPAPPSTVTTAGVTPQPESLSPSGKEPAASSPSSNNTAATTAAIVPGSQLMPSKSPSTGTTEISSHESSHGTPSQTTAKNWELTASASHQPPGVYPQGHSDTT
Method: Peptide binding to the IL15-Rα was characterized by ELISA. Briefly, 96-well plates were coated with purified IL-15 in phosphate buffered saline (PBS) and blocked with bovine albumin at 1% in PBS. Dilutions of each peptide were added to the wells and plates were incubated for 1 h at 37° C. The plates were washed with PBS-Tween 20 and incubated with an IL-15Rα-Fc for 1 h at 37° C. Plates were washed again with PBS-Tween 20 and further incubated an anti Fc-human IgG-peroxidase conjugate for 1 h at 37° C. After washing, the antigen-antibody reaction was run by adding the substrate and 3,3′,5,5′-Tetramethylbenzidine (TMB), and O.D. was read at 450 nm.

[6] = system: prostate cancer cell line PC-3; assay: IL-15Rα-induced IL-6 and IL-8 mRNA expression in PC-3 cells (real time RT-PCR); format: cell-based; details: peptide 100 μg/mL, IL15-Rα 1 ng/mL
Method: The experiment was carried out in 24-well plates by incubating 1.5×10^6 cells with peptides SEQ ID No. 1 and SEQ ID No. 12 at 100 μg/mL and IL15-Rα (1 ng/mL), and also combinations of IL15-Rα and peptides SEQ ID No. 1 and SEQ ID No. 12.
The RNA was isolated by the TriReagent method (Sigma) and analyzed by measuring the O.D. 260/280 nm ratio and Agarose gel electrophoresis. The real time reverse transcription and polymerase chain reaction were carried out by using the Quantitect Reverse Transcription Kit and QuantiTect SYBR Green PCR (QIAGEN) in a Rotor Gene 6000 equipment.

[7] = system: synovial fluid cells of RA patients; assay: IL-15-mediated TNFα production in synovial fluid cells of RA patients (ELISA); format: cell-based, human; details: peptide 50 μg/mL plus IL-15 60 ng/mL, 48 h; heading says peptide as a dimer; FIG. 6
Method: After obtaining a written informed consent, synovial fluid from RA patients was extracted and incubated with hyaluronidase at 10 μg per mL of fluid for 45 min at 37° C. Synovial fluid cells were obtained after centrifugation at 1200 rpm for 10 min.
Cells were incubated in 96-well plated at 2×10^5 cells per well with 50 μg/mL of peptide and 60 ng/mL of IL-15 and also a combination of peptide plus IL-15. After incubation for 48 h, supernatants were collected and stored at −70° C. until evaluation. The amount of TNFα was quantified by EL ISA (R&D DTA50).

[8] = system: CTLL-2 cell line and peripheral blood mononuclear cells (PBMC); details: CTLL-2 cell line and PBMC; cited from earlier work

## CSCC[C@H](NC(=O)[C@H](C)NC(=O)[C@@H](NC(=O)[C@@H](NC(=O)[C@@H](N)CCCCN)C(C)C)[C@@H](C)O)C(=O)N[C@H](C(=O)N[C@@H](CSSC[C@H](NC(=O)[C@@H](NC(=O)[C@H](CCSC)NC(=O)[C@H](C)NC(=O)[C@@H](NC(=O)[C@@H](NC(=O)[C@@H](N)CCCCN)C(C)C)[C@@H](C)O)[C@@H](C)O)C(=O)N[C@@H](Cc1ccccc1)C(=O)N[C@@H](CC(C)C)C(=O)N[C@@H](CC(C)C)C(N)=O)C(=O)N[C@@H](Cc1ccccc1)C(=O)N[C@@H](CC(C)C)C(=O)N[C@@H](CC(C)C)C(N)=O)[C@@H](C)O [SEQ ID No. 12 dimer] (I: H-KVTAMTCFLL-NH2 / II: H-KVTAMTCFLL-NH2; disulfide I:7-II:7 (inferred); N-terminus assumed)
[1]
  IC50: 8 µM
  activity relative to the original peptide of WO2006/029578 (fold): 15
[1]; dimer linked through the free Cys
  activity of the dimer relative to the monomer (fold): seven times more active
[2]
  inhibitory effect on IL-15-induced proliferation of Kit225: higher inhibitory effect
[3]
  grade of parakeratosis in the psoriatic lesion: lowered grade
  keratinocytes' cycles: significantly decreased
  number of inflammatory cells: significantly decreased
  thickness of the epidermis: significant reduction
  severity of the disease: reduction in the severity of the disease

## IL-15: 14-15 kDa cytokine, T cell activating factor
[4]
  Kd: 0.01 nM

## KATAMKCFLL-NH2 [KATAMKCFLL]
[1]
  IC50: 130 µM

## KVAAMKCFLL-NH2 [KVAAMKCFLL]
[1]
  IC50: 130 µM

## KVTAAKCFLL-NH2 [KVTAAKCFLL]
[1]
  IC50: 130 µM

## KVTAMECFLL
[1]
  activity relative to the original peptide of WO2006/029578 (fold): ten-fold
  inhibitory effect of the peptide (in words): loss of the inhibitory effect

## KVTAMKAFLL
[1]
  inhibitory effect of the peptide (in words): loss of the inhibitory effect
[5]; ELISA, IL-15 coated plate, IL-15Rα-Fc, FIG. 2
  displacement of binding of IL-15 to IL-15Rα: does not displace

## KVTAMKCFAL-NH2 [KVTAMKCFAL]
[1]
  IC50: 200 µM

## KVTAMKCFLA-NH2 [KVTAMKCFLA]
[1]
  IC50: 260 µM

## KVTAMKCFLL-NH2 [KVTAMKCFLL, reference compound]
[1]
  IC50: 130 µM

## KVTAMKSFLL
[1]
  inhibitory effect of the peptide (in words): loss of the inhibitory effect

## KVTAMTCFLL-NH2 [KVTAMTCFLL]
[1]
  IC50: 24.6 µM
[1]; listed as Lys-Thr mutant
  activity relative to the original peptide of WO2006/029578 (fold): five-fold
[1]; fixed peptide concentration 260 μM, IL-15 75, 150, 300 pg/mL, FIG. 4
  antagonistic activity at varying IL-15 concentration: dependence of the antagonistic activity
[2]
  inhibitory effect on IL-15-induced proliferation of Kit225: inhibitory effect depending on the concentration of the peptide
[6]; FIG. 5A
  IL15-Rα-mediated transcription of IL-8: inhibits transcription
[6]; FIG. 5B
  IL15-Rα-mediated transcription of IL-6: inhibits transcription
[7]
  TNFα secretion: inhibits TNFα secretion
[3]
  grade of parakeratosis in the psoriatic lesion: lowered grade
  keratinocytes' cycles: significantly decreased
  number of inflammatory cells: significantly decreased
  thickness of the epidermis: significant reduction
  severity of the disease: reduction in the severity of the disease
[5]
  capacity to bind to the IL-15Rα: retains the capacity to bind to the IL-15Rα

## KVTAMTCYLL-NH2 [KVTAMTCYLL]
[1]
  IC50: 57.7 µM

B1: 146B7: Genmab antibody specific for IL-15, targets the region interacting with IL-15Rγ (antibody, chains of the INN, looked up, V domains shown)
VH: EVQLVQSGAEVKKPGESLKISCKVSGYFFTTYWIGWVRQMPGKGLEYMGIIYPGDSDTRYSPSFQGQVTISADKSISTAYLQWSSLKASDTAMYYCARGGNWNCFDYWGQGTLVTVSS
VL: EIVLTQSPGTLSLSPGERATLSCRASQSVSSSYLAWYQQKPGQAPRLLIYGASRRATGIPDRFSGSGSGTDFTLTISRLEPEDFAVYYCQRYGSSHTFGQGTKLEIS
[8]
  inhibition of IL-15-induced cell proliferation: inhibit the IL-15-induced cell proliferation
